Reference: US7446107B2, “Crystalline forms of conazoles and methods of making and using the same” (Transform Pharmaceuticals, Inc., priority 2002, dated 2008)

Experiments:
[1] = Hygroscopicity determination (humidity chambers); type: physicochemical; conditions: 75% relative humidity, 25° C., 8 hours
Protocol: The hygroscopicity profiles for a sample from each of vials 1-5, as well as cis-itraconazole free base, were determined by exposing a sample from each of vials 1-5 to four different environments of varying relative humidity (namely, 0%, 30%, 57%, and 75%), and incubating the samples in that environment for about 8 hours at room temperature (20-25° C.). The humidity chambers consisted of desiccators with desiccants/salt baths in the bottom, above which the open vials containing samples were suspended.
The relative hygroscopicity of each sample was determined using methods well known to one skilled in the pharmaceutical arts as reported in “Pharmaceutical Preformulation & Formulation: A Practical Guide From Candidate Drug Selection to Commercial Dosage Form,” Ed. Mark Gibson, published by IHS Health Group Co, p. 49 (2001), which is incorporated herein by reference in its entirety.

[2] = Solubility in pH 1 buffer (HPLC-UV); type: physicochemical
Protocol: Beginning with the longest time point, pH 1 buffer (1 N HCl adjusted to pH 1 using 1 N NaOH) was added to each of the wells containing samples until completion of the shortest time points. The samples were vigorously stirred throughout the experiment. At the end of the assay, the solution and solid states of all the samples were separated by centrifugation in a polyvinylidene fluoride 96-well filter plate for 2 minutes at 500 xg.
Approximately 30 μl of solution was collected from the solution state of each sample and diluted in 120 μl of methanol in glass vials. Aluminum caps were crimped on the vial tops to prevent evaporation of methanol.

[3] = cited from earlier work
[4] = Physical form after incubation in pH 1 buffer (PXRD); type: physicochemical; conditions: 2 hours, room temperature
Protocol: 70 μl of pH 1 buffer (1 N HCl adjusted to pH 1 using 1 N NaOH) was added to the same well. The sample was incubated at room temperature with vigorous mixing for 2 hours. At the end of the assay, the 384 well plate was centrifuged for 2 minutes at 500 xg and the supernatant was removed by aspiration.
The remaining solid state was analyzed by X-ray powder diffraction in a borosilicate tube, but otherwise using the same equipment, software, procedures, and parameters described in Example 1.

[5] = Solubility in THF (observation during synthesis); type: physicochemical; conditions: up to 70° C.
Description: Thereafter, the vials were removed from the oven, the caps from all the bottles were removed, and the samples were allowed to evaporate in air under ambient conditions. Once significant amounts of solids were present in a sample, the remaining liquid in the sample was removed by pipetting out the liquid phase and using suction filtration with Whatman filter paper to rescue any solid that may have been dispersed in the liquid phase. The remaining solid in the liquid phase and the filtrate were dried in the vacuum oven (VWR Scientific, Model # 1400E) under vacuum for at least 12 hours. With regard to vial 3, the solid crashed out of solution as soon as the acid was added and never went into solution even at 70° C.; however, the solid in the sample was harvested in the same manner as the other samples.

For CCC(C)n1ncn(-c2ccc(N3CCN(c4ccc(OCC5COC(Cn6cncn6)(c6ccc(Cl)cc6Cl)O5)cc4)CC3)cc2)c1=O.O=C(O)C(O)C(O)C(=O)O (racemic) [cis-itraconazole DL-tartrate], the relative hygroscopicity [1] was “slightly hygroscopic (greater than 0.2% and less than 2% weight loss after incubation in 75% relative humidity at 25 °C for 8 hours)”.

In the case of CCC(C)n1ncn(-c2ccc(N3CCN(c4ccc(OC[C@H]5CO[C@](Cn6cncn6)(c6ccc(Cl)cc6Cl)O5)cc4)CC3)cc2)c1=O (mixture of isomers) [cis-itraconazole free base, (±)cis-4-[4-[4-[4-[[2-(2,4-dichlorophenyl)-2-(1H-1,2,4-triazol-1-ylmethyl)-1,3-dioxolan-4-yl]methoxy]phenyl]-1-piperazinyl]phenyl]-2,4-dihydro-2-(1-methylpropyl)-3H-1,2,4-triazol-3-one, reference compound], the “change of solubility with time” value ([2]; measured period up to 120 minutes) is given as “did not change over the measured period of time” and the solubility in water [3] is given as “only very sparingly soluble in water”.

For CCC(C)n1ncn(-c2ccc(N3CCN(c4ccc(OCC5COC(Cn6cncn6)(c6ccc(Cl)cc6Cl)O5)cc4)CC3)cc2)c1=O.O=S(=O)(O)c1ccccc1 (stereo not drawn) [cis-itraconazole benzensulfonate], the relative hygroscopicity [1] was “hygroscopic (greater than 2% and less than 15% weight loss after incubation in 75% relative humidity at 25 °C for 8 hours)”.

With CCC(C)n1ncn(-c2ccc(N3CCN(c4ccc(OCC5COC(Cn6cncn6)(c6ccc(Cl)cc6Cl)O5)cc4)CC3)cc2)c1=O.O=C(O)C=CC(=O)O (stereo not drawn) [cis-itraconazole fumaric acid co-crystal] the relative hygroscopicity [1] was “slightly hygroscopic (greater than 0.2% and less than 2% weight loss after incubation in 75% relative humidity at 25 °C for 8 hours)”, the “solid state form after incubation” value [4] was “did not change form” and the “solubility relative to free base” value ([2]; 15 minutes) was “at least 4 fold”. The “solubility relative to free base” value ([2]; 4 hours) was “approximately 1.5 fold”.

In the case of CCC(C)n1ncn(-c2ccc(N3CCN(c4ccc(OCC5COC(Cn6cncn6)(c6ccc(Cl)cc6Cl)O5)cc4)CC3)cc2)c1=O.O=P(O)(O)O (stereo not drawn) [cis-itraconazole phosphate], the relative hygroscopicity [1] is reported as “slightly hygroscopic (greater than 0.2% and less than 2% weight loss after incubation in 75% relative humidity at 25 °C for 8 hours)”.

With CCC(C)n1ncn(-c2ccc(N3CCN(c4ccc(OCC5COC(Cn6cncn6)(c6ccc(Cl)cc6Cl)O5)cc4)CC3)cc2)c1=O.O=S(=O)(O)O (stereo not drawn) [cis-itraconazole sulfate] the relative hygroscopicity [1] was “hygroscopic (greater than 2% and less than 15% weight loss after incubation in 75% relative humidity at 25 °C for 8 hours)” and the “solubility in THF” value [5] was “insoluble or only slightly soluble in THF”.
